Test results taken from patent EP0603240B1, “SAFENING HERBICIDAL PYRAZOLYLSULFONYLUREAS” (priority 1991, dated 1993).

How the values were obtained:
Type in all cases: in vivo
[1] = system: barnyardgrass (Echinochloa crusgalli); test: Example 6, Procedure II: Herbicide No. 1 + alachlor (No. 7) with antidotes
Experimental: (§1) Containers were filled and compacted with a fumigated silt loam top soil to a depth of about 1.3 cm from the top of the container. A first container was designated as an untreated control, a second container was designated as a herbicide control, and a third container was designated as a herbicide + antidote test container. Each of the containers was seeded with a crop species. A measured amount of herbicide dispersed or dissolved in acetone was applied to a measured quantity of soil. To this same quantity of soil treated with herbicide, there was added a measured amount of antidote dispersed or dissolved in acetone. The quantity of soil treated with the herbicide and antidote was thoroughly mixed to incorporate the herbicide and antidote in the soil uniformly. The seed bed in the third container of soil was covered with the soil treated with the herbicide and antidote and the container was leveled. For each test series, the seed beds of the first and second containers were likewise covered by soil layers. the cover layer of the first container was not treated with herbicide or antidote.
(§2) The containers were then placed on a bench in a greenhouse and sub-irrigated as required for the duration of the test. […] Plant response is measured in terms of percent injury. Antidote efficacy is indicated as the difference in plant injury by the herbicide(s) without the antidote and with the antidote.
(§3) This procedure is the same as Procedure I, but modified in the manner that after incorporation of the chemicals (herbicide and antidote) the containers with the covered seedbed were treated with an initial overhead irrigation equivalent to 0.6 cm rainfall, then subsequently sub-irrigated as required on greenhouse benches.
(§4) In the series of greenhouse tests described below, for routine screening purposes the herbicide/antidote compositions were tested in crop/weed combinations involving corn as the crop and either or both of the weeds barnyardgrass (Echinochloa crusgalli), a monocotyledonous weed, and velvetleaf (Abutilon theophrasti), a dicotyledonous weed. In the tables below, these weeds are indicated by the symbols "BYG" and "VL", respectively.
(§5) This example was designed to investigate the antidotal efficacy of a plurality of antidotal compounds against a composition comprising Herbicide No. 1 in combination with Herbicide No. 7 (alachlor). The antidotal compounds used herein were Nos. 1, 2, 7, 13 and 15.
(§6) In this example, Procedure II described above was followed. The data from the tests in this example is shown in Table 6 and represents averages of duplicate replications.

[2] = system: velvetleaf (Abutilon theophrasti); test: as above
Experimental: as §1, §2, §3, §4, §5, §6

[3] = system: barnyardgrass (Echinochloa crusgalli); test: Example 10, Procedure II: Herbicide No. 1 + propachlor (No. 5) with antidotes
Experimental: as §1, §2, §3, §4
(§7) In this test, the safening effect of various antidotes on the herbicidal combination of Herbicide No. 1 and another α-chloroacetanilide co-herbicide, propachlor, (Herbicide No. 5) was investigated. Propachlor is the active ingredient in the commercial herbicide RAMROD®. Procedure II was also used in this test as in the preceding example.

[4] = system: velvetleaf (Abutilon theophrasti); test: as above
Experimental: as §1, §2, §3, §4, §7

[5] = system: barnyardgrass (Echinochloa crusgalli); test: Example 11, Procedure II: Herbicide No. 1 + metazachlor (No. 14) with antidotes
Experimental: as §1, §2, §3, §4
(§8) In this example, yet another α-chloroacetanilide co-herbicide, metazachlor (Herbicide No. 14) was combined with Herbicide No. 1 for investigation of the effect of various safeners on that composition. Metazachlor is the active ingredient in the commercial herbicide BUTISAN® S, used here as a 500 g/L formulation.

[6] = system: velvetleaf (Abutilon theophrasti); test: as above
Experimental: as §1, §2, §3, §4, §8

[7] = system: Giant foxtail (Setaria fabergi); test: Example 24, Procedure II: Herbicide No. 1 + co-herbicides Nos. 4, 6, 7, 12 with Antidote Nos. 15 and 17-21
Outline: (§9)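 Greenhouse pots, herbicide No. 1 plus co-herbicides and antidote in acetone incorporated into silt loam soil covering the corn seed bed, with giant foxtail and velvetleaf; initial overhead irrigation equal to 0.6 cm rainfall, then sub-irrigation. Antidote at 2.24 kg/ha; percent injury read 13 days after application, duplicate average.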

corn = test: as above
Outline: as §9

[8] = Herbicide No.1 0.14 + No.7 4.48 kg/ha + antidote 2.24 kg/ha
[9] = Herbicide No.1 0.14 + No.7 4.48 kg/ha + antidote 8.96 kg/ha
[10] = Herbicide No.1 0.56 + No.7 4.48 kg/ha + antidote 2.24 kg/ha
[11] = Herbicide No.1 0.56 + No.7 4.48 kg/ha + antidote 8.96 kg/ha
[12] = Herbicide No.1 0.14 kg/ha + Herbicide No.5 4.48 kg/ha, antidote rate 2.24 kg/ha
[13] = Herbicide No.1 0.14 kg/ha + Herbicide No.5 4.48 kg/ha, antidote rate 8.96 kg/ha
[14] = Herbicide No.1 0.56 kg/ha + Herbicide No.5 4.48 kg/ha, antidote rate 2.24 kg/ha
[15] = Herbicide No.1 0.56 kg/ha + Herbicide No.5 4.48 kg/ha, antidote rate 8.96 kg/ha
[16] = Herbicide No.1 0.56 kg/ha + Herbicide No.14 3.36 kg/ha, antidote rate 2.24 kg/ha
[17] = Herbicide No.1 0.56 kg/ha + Herbicide No.14 3.36 kg/ha, antidote rate 8.96 kg/ha
[18] = Herbicide No.1 1.12 kg/ha + Herbicide No.14 3.36 kg/ha, antidote rate 2.24 kg/ha
[19] = Herbicide No.1 1.12 kg/ha + Herbicide No.14 3.36 kg/ha, antidote rate 8.96 kg/ha
[20] = Herb. No. 1 0.07 Kg/ha + Co-Herb. No. 4 1.12 Kg/ha + antidote 2.24 Kg/ha
[21] = Herb. No. 1 0.07 Kg/ha + Co-Herb. No. 6 0.14 Kg/ha + antidote 2.24 Kg/ha
[22] = Herb. No. 1 0.07 Kg/ha + Co-Herb. No. 7 0.28 Kg/ha + antidote 2.24 Kg/ha
[23] = Herb. No. 1 0.07 Kg/ha + Co-Herb. No. 12 0.28 Kg/ha + antidote 2.24 Kg/ha
[24] = Herb. No. 1 0.14 Kg/ha + Co-Herb. No. 4 1.12 Kg/ha + antidote 2.24 Kg/ha
[25] = Herb. No. 1 0.14 Kg/ha + Co-Herb. No. 6 0.14 Kg/ha + antidote 2.24 Kg/ha
[26] = Herb. No. 1 0.14 Kg/ha + Co-Herb. No. 7 0.28 Kg/ha + antidote 2.24 Kg/ha
[27] = Herb. No. 1 0.14 Kg/ha + Co-Herb. No. 12 0.28 Kg/ha + antidote 2.24 Kg/ha
[28] = Herb. No. 1 0.28 Kg/ha + Co-Herb. No. 4 1.12 Kg/ha + antidote 2.24 Kg/ha
[29] = Herb. No. 1 0.28 Kg/ha + Co-Herb. No. 6 0.14 Kg/ha + antidote 2.24 Kg/ha
[30] = Herb. No. 1 0.28 Kg/ha + Co-Herb. No. 7 0.28 Kg/ha + antidote 2.24 Kg/ha
[31] = Herb. No. 1 0.28 Kg/ha + Co-Herb. No. 12 0.28 Kg/ha + antidote 2.24 Kg/ha
[32] = Herb. No. 1 0.56 Kg/ha + Co-Herb. No. 4 1.12 Kg/ha + antidote 2.24 Kg/ha
[33] = Herb. No. 1 0.56 Kg/ha + Co-Herb. No. 6 0.14 Kg/ha + antidote 2.24 Kg/ha
[34] = Herb. No. 1 0.56 Kg/ha + Co-Herb. No. 7 0.28 Kg/ha + antidote 2.24 Kg/ha
[35] = Herb. No. 1 0.56 Kg/ha + Co-Herb. No. 12 0.28 Kg/ha + antidote 2.24 Kg/ha

CC1(C)OC(c2ccco2)CN1C(=O)C(Cl)Cl (centres unmarked) [compound 15]
% Injury BYG [1, 8]: 100% | % Injury BYG [1, 9]: 100% | % Injury BYG [1, 10]: 100% | % Injury BYG [1, 11]: 100% | % Injury VL [2, 8]: 80% | % Injury VL [2, 9]: 65% | % Injury VL [2, 10]: 90% | % Injury VL [2, 11]: 95% | % Injury BYG [3, 12]: 98% | % Injury BYG [3, 13]: 90% | % Injury BYG [3, 14]: 93% | % Injury BYG [3, 15]: 85% | % Injury VL [4, 12]: 70% | % Injury VL [4, 13]: 80% | % Injury VL [4, 14]: 80% | % Injury VL [4, 15]: 75% | % Injury BYG [5, 16]: 100% | % Injury BYG [5, 17]: 100% | % Injury BYG [5, 18]: 100% | % Injury BYG [5, 19]: 100% | % Injury VL [6, 16]: 90% | % Injury VL [6, 17]: 90% | % Injury VL [6, 18]: 85% | % Injury VL [6, 19]: 85% | % Inhibition GFT [7, 20]: 40% | % Inhibition GFT [7, 21]: 100% | % Inhibition GFT [7, 22]: 100% | % Inhibition GFT [7, 23]: 99% | % Inhibition GFT [7, 24]: 65% | % Inhibition GFT [7, 25]: 100% | % Inhibition GFT [7, 26]: 100% | % Inhibition GFT [7, 27]: 99% | % Inhibition GFT [7, 28]: 60% | % Inhibition GFT [7, 29]: 100% | % Inhibition GFT [7, 30]: 100% | % Inhibition GFT [7, 31]: 100% | % Inhibition GFT [7, 32]: 60% | % Inhibition GFT [7, 33]: 99% | % Inhibition GFT [7, 34]: 100% | % Inhibition GFT [7, 35]: 99% | % Inhibition Corn (corn; [20]): 0% | % Inhibition Corn (corn; [21]): 5% | % Inhibition Corn (corn; [22]): 0% | % Inhibition Corn (corn; [23]): 5% | % Inhibition Corn (corn; [24]): 10% | % Inhibition Corn (corn; [25]): 5% | % Inhibition Corn (corn; [26]): 0% | % Inhibition Corn (corn; [27]): 5% | % Inhibition Corn (corn; [28]): 5% | % Inhibition Corn (corn; [29]): 10% | % Inhibition Corn (corn; [30]): 0% | % Inhibition Corn (corn; [31]): 5% | % Inhibition Corn (corn; [32]): 15% | % Inhibition Corn (corn; [33]): 10% | % Inhibition Corn (corn; [34]): 5% | % Inhibition Corn (corn; [35]): 5%

CC1(C(Cl)Cl)OCCO1 [compound 13]
% Injury BYG [1, 8]: 100% | % Injury BYG [1, 9]: 100% | % Injury BYG [1, 10]: 100% | % Injury BYG [1, 11]: 100% | % Injury VL [2, 8]: 75% | % Injury VL [2, 9]: 65% | % Injury VL [2, 10]: 90% | % Injury VL [2, 11]: 90% | % Injury BYG [3, 12]: 98% | % Injury BYG [3, 13]: 97% | % Injury BYG [3, 14]: 99% | % Injury BYG [3, 15]: 98% | % Injury VL [4, 12]: 70% | % Injury VL [4, 13]: 70% | % Injury VL [4, 14]: 80% | % Injury VL [4, 15]: 75% | % Injury BYG [5, 16]: 100% | % Injury BYG [5, 17]: 100% | % Injury BYG [5, 18]: 100% | % Injury BYG [5, 19]: 100% | % Injury VL [6, 16]: 85% | % Injury VL [6, 17]: 85% | % Injury VL [6, 18]: 90% | % Injury VL [6, 19]: 95%
